# According to patent publication US10457672B2, “γ-diketones as Wnt/β-catenin signaling pathway activators” (Samumed, LLC, priority 2013, dated 2019):
# Tested on: Wnt/β-catenin signaling pathway (Wnt-responsive SP5 promoter luciferase reporter in SW480 cells)
# Test: Wnt reporter (SP5 promoter-firefly luciferase) activation assay in SW480 cells
# Assay type: cell-based
# Conditions: Homo sapiens; SW480 colon cancer cells with SP5 promoter luciferase reporter; 24 h after compound addition; normalized to DMSO; concentration at half maximal activation
# Procedure: Compounds that enhance the Wnt activity, or Activators, were assayed as follows. Reporter cell lines were generated by stably transducing cells of colon cancer cell lines (with a lentiviral construct that included a Wnt-responsive promoter driving expression of the firefly luciferase gene).
# Lentiviral constructs were made in which the SP5 promoter, a promoter having eight TCF/LEF binding sites derived from the SP5 promoter, was linked upstream of the firefly luciferase gene. The lentiviral constructs also included a hygromycin resistance gene as a selectable marker. The SP5 promoter construct was used to transduce SW480 cells, a colon cancer cell line having a mutated APC gene that generates a truncated APC protein, leading to de-regulated accumulation of β-catenin.
# Cultured SW480 cells bearing a reporter construct were distributed at approximately 10,000 cells per well into 384- or 96-well multiwell plates. Compounds from a small molecule compound library were then added to the wells in half-log dilutions using a maximum concentration of three or ten micromolar. A series of control wells for each cell type received only buffer and compound solvent DMSO. Twenty-four hours after the addition of compound, reporter activity for luciferase was assayed, for example, by addition of the BrightGlo luminescence reagent (Promega) and the Victor3 plate reader (Perkin Elmer). Readings were normalized to DMSO only treated cells, and any activities above DMSO were considered activation. Compounds were considered activators if reporter activities were 2× fold or greater than DMSO. EC50 is the concentration at half maximal activation.
row,SMILES,EC50 [nM]
1,"COc1ccc(C(=O)CCC(=O)c2ccccn2)cc1OC [Compound 207, 1-(3,4-Dimethoxyphenyl)-4-(pyridin-2-yl)butane-1,4-dione]",> 10000
2,"O=C(CCC(=O)c1ccccc1C(F)(F)F)c1ccc2[nH]ccc2c1 [Compound 249, 1-(1H-Indol-5-yl)-4-(2-(trifluoromethyl)phenyl)butane-1,4-dione]",4
3,"O=C(CCC(=O)c1ccc2c(c1)OCO2)c1cccc(F)c1 [Compound 214, 1-(Benzo[d][1,3]dioxol-5-yl)-4-(3-fluorophenyl)butane-1,4-dione]",10
4,"O=C(CCC(=O)c1ncccn1)c1ccc2c(c1)CCCC2 [Compound 737, 1-(Pyrimidin-2-yl)-4-(5,6,7,8-tetrahydronaphthalen-2-yl)butane-1,4-dione]",22
5,"Cc1ccccc1C(=O)CCC(=O)c1ccc2ocnc2c1 [Compound 485, 1-(Benzo[d]oxazol-5-yl)-4-(o-tolyl)butane-1,4-dione]",> 10000
6,"O=C(CCC(=O)c1ccccc1F)c1cccs1 [Compound 557, 1-(2-Fluorophenyl)-4-(thiophen-2-yl)butane-1,4-dione]",26
7,"O=C(CCC(=O)c1cccc2c1OCCO2)c1ccccc1 [Compound 248, 1-(2,3-Dihydrobenzo[b][1,4]dioxin-5-yl)-4-phenylbutane-1,4-dione]",> 10000
8,"Cc1cccc(C(=O)CCC(=O)c2ccc3c(c2)OCCO3)c1 [Compound 343, 1-(2,3-Dihydrobenzo[b][1,4]dioxin-6-yl)-4-(m-tolyl)butane-1,4-dione]",351
9,"O=C(CCC(=O)c1ccccc1F)c1ccc2c(c1)OCO2 [Compound 213, 1-(Benzo[d][1,3]dioxol-5-yl)-4-(2-fluorophenyl)butane-1,4-dione]",18
10,"O=C(CCC(=O)c1ccc2[nH]ncc2c1)c1ccc(F)cc1 [Compound 497, 1-(4-Fluorophenyl)-4-(1H-indazol-5-yl)butane-1,4-dione]",48
11,"COc1ccc(C(=O)CCC(=O)c2cncnc2)cc1OC [Compound 430, 1-(3,4-Dimethoxyphenyl)-4-(pyrimidin-5-yl)butane-1,4-dione]",> 10000
12,"COc1cccc(C(=O)CCC(=O)c2ccc3c(c2)OCCO3)c1 [Compound 13, 1-(2,3-Dihydrobenzo[b][1,4]dioxin-6-yl)-4-(3-methoxyphenyl)butane-1,4-dione]",192
13,"O=C(CCC(=O)c1ncccc1Cl)c1ccc2c(c1)OCCO2 [Compound 767, 1-(3-Chloropyridin-2-yl)-4-(2,3-dihydrobenzo[b][1,4]dioxin-6-yl) butane-1,4-dione]",2.16
14,"Cc1ccccc1C(=O)CCC(=O)c1ccc2c(c1)OCCO2 [Compound 342, 1-(2,3-Dihydrobenzo[b][1,4]dioxin-6-yl)-4-(o-tolyl)butane-1,4-dione]",9
15,"COc1ccccc1C(=O)CCC(=O)c1n[nH]c2ccccc12 [Compound 332, 1-(1H-Indazol-3-yl)-4-(2-methoxyphenyl)butane-1,4-dione]",680
16,"O=C(CCC(=O)c1ccc2c(c1)SCCO2)c1ccc(C(F)(F)F)cc1 [Compound 18, 1-(2,3-Dihydrobenzo[b][1,4]oxathiin-6-yl)-4-(4-(trifluoromethyl)phenyl)butane-1,4-dione]",> 10000
17,"O=C(CCC(=O)c1c[nH]c2ccccc12)c1cccs1 [Compound 524, 1-(1H-Indol-3-yl)-4-(thiophen-2-yl)butane-1,4-dione]",88
18,"O=C(CCC(=O)c1ccccn1)c1ccc2c(c1)OC(F)(F)O2 [Compound 232, 1-(2,2-Difluorobenzo[d][1,3]dioxol-5-yl)-4-(pyridin-2-yl)butane-1,4-dione]",134
19,"O=C(CCC(=O)c1ccc2c(c1)OCCO2)c1ccncc1 [Compound 15, 1-(2,3-Dihydrobenzo[b][1,4]dioxin-6-yl)-4-(pyridin-4-yl)butane-1,4-dione]",90
20,"O=C(CCC(=O)c1ccc2c(c1)OCCO2)c1cccc(F)c1 [Compound 11, 1-(2,3-Dihydrobenzo[b][1,4]dioxin-6-yl)-4-(3-fluorophenyl)butane-1,4-dione]",13
